Assay results reported in paper PMC6413952, “Discovery of ABBV-4083, a novel analog of Tylosin A that has potent anti-Wolbachia and anti-filarial activity” (PLoS Neglected Tropical Diseases, 2019).
Where two headings read alike, the source gives them in different places.

Legend:
[1] = system: Wolbachia pipientis in Aedes albopictus C6/36 (wAlbB) insect cells; experiment: A·WOL Wolbachia-infected Aedes albopictus (C6/36 wAlbB) 7-day cell-based assay, high content imaging
Source text: Compounds were screened for anti-Wolbachia activity in vitro in the A·WOL-validated Wolbachia-infected Aedes albopictus (C6/36 wAlbB) 7-day cell-based assay which utilizes a 384-well format assay with high content imaging (HCI) (Operetta) as described previously.
We began our work by selecting a diverse and representative sample of the AbbVie antibiotics collection (129 compounds) for single-point testing against Wolbachia pipientis in an insect cell line. […] While TylA has a long history of use in multiple animal species, it has never been studied in humans; and its activity against Wolbachia has not previously been reported.

[2] = Rat oral pharmacokinetic study (plasma AUC, C8hr); type: in vivo, Sprague-Dawley rats; conditions: for AUC*/EC50: potency-weighted AUC
Experimental: PO doses were administrated by oral gavage, IP doses by intraperitoneal injection to BALB/c mice or Sprague-Dawley rats (Charles River Laboratories, USA). Serial blood samples collected into EDTA anticoagulant for plasma concentration analysis were obtained from each animal after dosing. EDTA preserved plasma samples were extracted by protein precipitation with acetonitrile fortified with internal standards. The supernatant was injected into an HPLC-MS/MS system for separation and quantitation. Detection was accomplished using a triple quadrupole mass spectrometer operated either in electrospray or atmospheric chemical ionization (APCI) mode. The area under the plasma concentration-time curve (AUC) was calculated using the linear trapezoidal rule.

[3] = system: Litomosoides sigmodontis / Wolbachia; experiment: Litomosoides sigmodontis microfilariae-positive jird model; type: in vivo, jirds (Meriones unguiculatus)
Experimental: As described previously, female BALB/c mice or female jirds were infected at 6–8 weeks of age with L. sigmodontis larvae through the bites of Ornithonyssus bacoti mites.
Starting at 14 weeks post infection, microfilariae-positive jirds (n = 7 per group) were dosed PO with ABBV-4083 (150 mg/kg QD) dissolved in 0.5% HPMC/0.02% Tween-80 or vehicle using a volume of 5ml/kg. Microfilariae numbers were assessed through visual inspection of blood samples collected from the saphenous vein at weekly intervals post-dosing. For this, 10 μl of peripheral blood were diluted in 300 μl of Hinkelmann solution (0.5% Eosin Y, 0.5% Phenol, 0.185% Formaldehyde in aqua dest). After 5 minutes of centrifugation at 400g, the supernatant was discarded and the pellet transferred for microscopic quantification of the microfilariae. At 16 weeks post-treatment, jirds were euthanized by an overdose of isoflurane; worms were recovered from the pleural cavity and counted. Remaining intact female adult worms were used to assess embryogenesis and the Wolbachia load. For the latter, genomic DNA (gDNA) was extracted from individual female adult worms and quantification of the Wolbachia ftsZ (wLs-ftsZ) and L. sigmodontis β-actin (Ls-act) gene copy numbers was performed by quantitative real-time PCR (qPCR).
For embryograms, remaining intact female adult worms were individually homogenized in 20% Hinkelmann/80% PBS solution, diluted 1:10 in PBS and quantified by microscopy. Embryonal stages were differentiated as egg, morulae, pretzel and stretched microfilariae.

receptors = experiment: Battery of 35 assays assessing general selectivity; type: binding; conditions: maximum concentration of 10 μM
Source text: (§1) As a preclinical candidate, ABBV-4083 has been evaluated in a variety of in vitro assays assessing preclinical safety. […] In preparation for first-in-human studies, the safety of ABBV-4083 has been extensively evaluated in 28-day GLP general and reproductive toxicity studies. In addition, the synthesis has been adapted to produce GMP quality supplies.

hERG channel = hERG channel (Homo sapiens, UniProt Q12809); experiment: Functional hERG channel activity; type: biochemical; conditions: maximum concentration of 30 μM
hERG channel, sequence (Q12809 whole entry): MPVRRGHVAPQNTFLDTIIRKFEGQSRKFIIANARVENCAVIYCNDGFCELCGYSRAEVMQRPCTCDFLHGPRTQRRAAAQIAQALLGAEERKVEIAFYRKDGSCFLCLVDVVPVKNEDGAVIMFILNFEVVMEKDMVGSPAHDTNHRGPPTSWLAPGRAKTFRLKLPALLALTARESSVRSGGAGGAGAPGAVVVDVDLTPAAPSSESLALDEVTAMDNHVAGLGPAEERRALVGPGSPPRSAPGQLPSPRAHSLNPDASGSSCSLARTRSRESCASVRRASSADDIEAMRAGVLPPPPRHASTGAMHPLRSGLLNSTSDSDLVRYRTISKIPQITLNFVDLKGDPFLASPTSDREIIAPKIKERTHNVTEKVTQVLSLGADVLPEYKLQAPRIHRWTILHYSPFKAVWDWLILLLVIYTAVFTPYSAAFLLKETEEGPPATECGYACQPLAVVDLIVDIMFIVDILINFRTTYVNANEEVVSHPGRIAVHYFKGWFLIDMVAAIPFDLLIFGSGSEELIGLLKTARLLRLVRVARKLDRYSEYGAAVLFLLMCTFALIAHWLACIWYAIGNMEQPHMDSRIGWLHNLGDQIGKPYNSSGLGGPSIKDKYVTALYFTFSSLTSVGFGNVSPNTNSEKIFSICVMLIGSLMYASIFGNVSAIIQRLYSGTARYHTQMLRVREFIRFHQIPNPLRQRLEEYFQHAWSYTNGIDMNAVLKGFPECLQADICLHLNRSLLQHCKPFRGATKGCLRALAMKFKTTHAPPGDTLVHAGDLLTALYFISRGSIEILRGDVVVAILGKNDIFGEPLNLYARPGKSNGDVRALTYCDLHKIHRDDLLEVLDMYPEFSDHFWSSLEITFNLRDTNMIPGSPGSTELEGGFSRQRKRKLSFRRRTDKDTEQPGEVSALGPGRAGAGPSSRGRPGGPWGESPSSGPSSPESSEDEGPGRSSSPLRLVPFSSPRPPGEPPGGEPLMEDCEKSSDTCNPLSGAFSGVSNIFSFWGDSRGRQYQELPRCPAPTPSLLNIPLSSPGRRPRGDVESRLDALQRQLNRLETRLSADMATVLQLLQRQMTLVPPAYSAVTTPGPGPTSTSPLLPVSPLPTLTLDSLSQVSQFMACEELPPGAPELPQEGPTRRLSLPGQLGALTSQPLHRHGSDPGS
Source text: as §1

[4] = Cardiovascular effects in dogs; type: in vivo; conditions: administered to dogs
Source text: as §1

[5] = In vitro genotoxicity screening assays; type: cell-based
Source text: as §1

[6] = In vitro phospholipidosis assay; type: cell-based
Source text: as §1

[7] = In vitro high-content steatosis screen; type: cell-based
Source text: as §1

[8] = system: Litomosoides, Brugia and Onchocerca; set-up: method as in PMID 30867321; conditions: cited from earlier work; for anti-Wolbachia efficacy compared with doxycycline: shorter durations of treatment
[9] = system: 77 mammalian receptors, ion channels, enzymes and transporters; set-up: method as in PMID 30867321; conditions: cited from earlier work
[10] = system: gram(+) and gram(-) microorganisms; set-up: method as in PMID 30867321; conditions: majority of panel; cited from earlier work

CC[C@H]1OC(=O)C[C@@H](O)[C@H](C)[C@@H](O[C@@H]2O[C@H](C)[C@@H](O[C@H]3C[C@@](C)(O)[C@@H](OCc4ccc(F)cc4)[C@H](C)O3)[C@H](N(C)C)[C@H]2O)[C@@H](CC=O)C[C@@H](C)C(=O)/C=C/C(C)=C/[C@@H]1CO[C@@H]1O[C@H](C)[C@@H](O)[C@@H](OC)[C@H]1OC [Compound 5d]
EC50 ([1]; C6/36, Wolbachia-infected insect cells, geometric mean (N), each N a duplicate measurement): 0.019 nM
potency improvement (EC50) over TylA ([1]; EC50 lower than parent TylA): 1,500 fold
C*8hr ([2]; PO rats, C(8hr)/dose): 0.75 ng/mL per mg/kg
AUC* parent ([2]; PO, Sprague-Dawley rats, AUC* = AUC/dose): 16 ng-hr/ml per mg/kg
AUC* TylA (metabolite) ([2]; PO, Sprague-Dawley rats, primary metabolite TylA, AUC/dose): <0.6 ng-hr/ml per mg/kg
potency-weighted 8-hr drug level (C8hr/dose/EC50) relative to TylA ([2]; oral dosing): 2,000 fold
potency-weighted AUC (AUC*/EC50) relative to TylA ([2]; oral dosing): 2,500 fold
improvement in plasma drug levels (AUC) over TylA ([2]; oral dosing, rats): 1.7 fold
metabolic stability of substituent / species observed in plasma ([2]; oral pharmacokinetic study): only parent drug is observed in the plasma
C*8hr/ EC50 ([2]; potency-weighted 8-hr drug level, PO rats): 39.5 ng/ml/nM per mg/kg
AUC*/EC50 ([2]; PO rats): 842 ng-hr/ml/nM per mg/kg
AUC*/EC50 ([2]; rat): 842,000 ng-hr/ml/uM per mg/kg
Wolbachia depletion ([3]; 150mg/kg 14days QD, Fig 3A): -99,91%
embryogenesis (embryograms of female worms) ([3]; 150 mg/kg PO QD 14 days, 16 weeks post treatment start): near-complete loss of all embryonic forms including eggs
circulating microfilariae ([3]; 150 mg/kg PO QD 14 days, from 12 weeks pti until 16 weeks pti): completely cleared
reduction of Wolbachia levels in recovered female adult worms ([3]; 150 mg/kg PO once daily for 14 days, 16 weeks post-treatment-initiation): > 99.9%
interactions with receptors in 35 selectivity assays (receptors): no significant interactions with any receptors
inhibition of functional hERG channel activity (hERG channel): did not inhibit
cardiovascular effects [4]: did not produce significant cardiovascular effects
genotoxicity [5]: neither mutagenic nor clastogenic
phospholipidosis [6]: No potential to induce phospholipidosis
steatosis [7]: did not induce steatosis
direct microfilaricidal activity [8]: not directly microfilaricidal
anti-Wolbachia efficacy compared with doxycycline [8]: superior to doxycycline
anti-Wolbachia efficacy compared with doxycycline ([8]; listed as ABBV-4083): equals or exceeds the efficacy of doxycycline
interactions across 77 assays [9]: significant interaction was only observed in two assays
change in susceptibility compared with TylA [10]: little to no change in susceptibility
